# Columns and labels:
# [1] = early animal and human dose range finding toxicology studies; cited from earlier work
# Caco-2 monolayer = Caco-2 monolayer permeability
# CYP1A2 = molecular target: T1, CYP1A2 (Homo sapiens, UniProt P05177); assay: CYP inhibition
# T1 sequence (P05177 1-516): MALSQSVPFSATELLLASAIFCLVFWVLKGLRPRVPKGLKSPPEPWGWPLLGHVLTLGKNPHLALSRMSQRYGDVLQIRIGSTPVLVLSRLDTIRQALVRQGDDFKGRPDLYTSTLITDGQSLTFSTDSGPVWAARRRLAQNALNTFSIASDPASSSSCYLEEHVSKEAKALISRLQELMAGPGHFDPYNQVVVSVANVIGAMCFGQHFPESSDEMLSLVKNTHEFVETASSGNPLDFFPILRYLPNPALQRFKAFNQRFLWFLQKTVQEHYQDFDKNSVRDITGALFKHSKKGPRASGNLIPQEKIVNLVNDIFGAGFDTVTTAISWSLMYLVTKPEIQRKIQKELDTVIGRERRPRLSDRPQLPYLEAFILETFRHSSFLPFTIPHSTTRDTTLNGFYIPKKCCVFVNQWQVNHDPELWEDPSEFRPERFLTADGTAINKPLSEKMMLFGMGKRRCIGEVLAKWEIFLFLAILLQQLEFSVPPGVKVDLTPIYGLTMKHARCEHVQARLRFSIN
# CYP2C9 = CYP2C9 (Homo sapiens, UniProt P11712); assay: CYP inhibition
# [2] = test system: impaired glucose tolerance; assay: diet induced-obesity; assay type: in vivo, C57Bl/6 mice; details: 100 mg/kg oral twice a day, after 4 weeks, ip glucose 2 g/kg 4 hours after dose
# [3] = test system: ca.150 other enzyme and receptor targets; assay: selectivity panel of ca.150 other enzyme and receptor targets; details: tested at 10 μM
# [4] = pharmacokinetics, species not specified; details: in vivo
# CYP2J = assay: CYP inhibition
# CYP2C = assay: CYP inhibition
# CYP2B6 = molecular target: T2, CYP2B6 (Homo sapiens, UniProt P20813); assay: CYP inhibition
# T2 sequence (P20813 1-491): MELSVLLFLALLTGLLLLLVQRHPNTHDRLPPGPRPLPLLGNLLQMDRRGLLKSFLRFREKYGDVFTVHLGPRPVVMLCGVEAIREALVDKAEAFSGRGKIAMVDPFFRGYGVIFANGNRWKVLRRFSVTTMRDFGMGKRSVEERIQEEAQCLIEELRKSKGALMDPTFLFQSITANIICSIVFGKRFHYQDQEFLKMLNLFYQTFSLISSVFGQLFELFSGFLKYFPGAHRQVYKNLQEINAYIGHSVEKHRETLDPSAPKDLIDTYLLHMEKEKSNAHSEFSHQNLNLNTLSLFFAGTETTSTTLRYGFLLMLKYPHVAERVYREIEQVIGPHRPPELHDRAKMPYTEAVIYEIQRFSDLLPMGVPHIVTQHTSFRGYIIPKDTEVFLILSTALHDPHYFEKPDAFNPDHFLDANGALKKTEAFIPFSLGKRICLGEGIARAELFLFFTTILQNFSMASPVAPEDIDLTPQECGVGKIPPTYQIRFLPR
# [5] = test system: AngII-induced hypertension; assay: AngII-infused rat model of hypertension; assay type: in vivo, Sprague-Dawley rats; details: 50 mg/kg orally twice daily
# dog pharmacokinetics = details: up to 500 mg/kg in dogs
# rat pharmacokinetics = details: up to 2000 mg/kg in rats
# CYP2C19 = CYP2C19 (Homo sapiens, UniProt P33261); assay: CYP inhibition
# [6] = cynomolgus monkey pharmacokinetics; details: up to 180 mg/kg in cynomolgus monkeys
# CYP3A4 = CYP3A4 (Homo sapiens, UniProt P08684); assay: CYP inhibition
# Chain of CYP3A4 (P08684 whole entry): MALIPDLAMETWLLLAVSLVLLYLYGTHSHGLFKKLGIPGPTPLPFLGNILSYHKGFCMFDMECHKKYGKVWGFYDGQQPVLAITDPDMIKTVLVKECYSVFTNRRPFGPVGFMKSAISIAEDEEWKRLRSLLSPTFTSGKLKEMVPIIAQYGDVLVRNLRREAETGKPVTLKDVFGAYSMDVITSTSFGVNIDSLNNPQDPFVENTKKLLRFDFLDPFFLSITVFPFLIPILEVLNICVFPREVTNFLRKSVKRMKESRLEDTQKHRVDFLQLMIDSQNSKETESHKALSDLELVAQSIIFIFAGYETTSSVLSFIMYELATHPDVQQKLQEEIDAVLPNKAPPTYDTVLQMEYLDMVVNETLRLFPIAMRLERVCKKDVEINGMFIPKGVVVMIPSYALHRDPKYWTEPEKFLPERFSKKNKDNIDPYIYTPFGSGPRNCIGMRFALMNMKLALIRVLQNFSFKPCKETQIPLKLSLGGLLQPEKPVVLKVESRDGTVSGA
# Chain of CYP2C19 (P33261 whole entry): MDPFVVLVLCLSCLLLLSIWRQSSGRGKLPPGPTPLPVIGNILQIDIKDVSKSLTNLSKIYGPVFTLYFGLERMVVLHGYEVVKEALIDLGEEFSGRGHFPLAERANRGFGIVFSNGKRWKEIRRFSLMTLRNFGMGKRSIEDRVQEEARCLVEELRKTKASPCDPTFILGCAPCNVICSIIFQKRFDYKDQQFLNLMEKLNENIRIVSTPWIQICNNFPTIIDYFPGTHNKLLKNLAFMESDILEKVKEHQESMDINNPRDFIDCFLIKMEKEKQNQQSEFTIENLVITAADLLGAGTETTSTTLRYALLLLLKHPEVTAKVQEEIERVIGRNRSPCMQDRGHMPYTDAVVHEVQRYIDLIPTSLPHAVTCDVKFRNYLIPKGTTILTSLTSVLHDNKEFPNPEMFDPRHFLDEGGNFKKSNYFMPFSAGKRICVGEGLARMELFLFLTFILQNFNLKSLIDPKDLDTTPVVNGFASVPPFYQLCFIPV
# Chain of CYP2C9 (P11712 whole entry): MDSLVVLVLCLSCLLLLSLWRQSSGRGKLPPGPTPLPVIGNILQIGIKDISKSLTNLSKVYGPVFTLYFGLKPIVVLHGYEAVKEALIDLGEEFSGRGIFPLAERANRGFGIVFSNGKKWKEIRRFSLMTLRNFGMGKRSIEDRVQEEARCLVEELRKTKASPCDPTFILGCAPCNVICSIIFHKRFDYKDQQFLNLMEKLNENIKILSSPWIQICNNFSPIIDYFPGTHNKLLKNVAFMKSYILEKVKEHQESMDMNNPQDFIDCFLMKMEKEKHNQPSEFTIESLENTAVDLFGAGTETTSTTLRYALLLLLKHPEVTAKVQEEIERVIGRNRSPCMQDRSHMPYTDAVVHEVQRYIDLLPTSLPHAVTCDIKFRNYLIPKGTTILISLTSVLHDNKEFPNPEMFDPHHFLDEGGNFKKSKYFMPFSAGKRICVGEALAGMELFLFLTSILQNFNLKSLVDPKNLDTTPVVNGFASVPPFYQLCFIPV
structure (smiles),measurement,setting,value
"CC(=O)N1CCC(NC(=O)NC23CC4CC(CC(C4)C2)C3)CC1 [Compound 14a, 1-(1-Acetyl-piperidin-4-yl)-3-adamantan-1-yl-urea]",tolerability,[1],well tolerated
same,permeability across a Caco-2 monolayer,Caco-2 monolayer,highly permeable
same,inhibition of CYP1A2,CYP1A2,No significant inhibition
same,inhibition of CYP2C9,CYP2C9,No significant inhibition
same,fraction unbound,plasma protein binding,0.39 to 0.42
same,glucose AUC versus vehicle-treated animals,[2],lower
same,maximal glucose excursion versus vehicle-treated animals,[2],lower
same,inhibitory activity against panel of ca.150 other enzyme and receptor targets,[3],no inhibitory activity
same,clearance,[4],relatively moderate to high
same,half life,[4],short
same,inhibition of CYP2J,CYP2J,No significant inhibition
same,inhibition of CYP2C,CYP2C,No significant inhibition
same,inhibition of CYP2B6,CYP2B6,No significant inhibition
same,effect on diastolic pressure,[5],more modest effect
same,oral exposure (AUC) versus dose,dog pharmacokinetics,increased in approximate proportion to dose
same,oral exposure (AUC) versus dose,rat pharmacokinetics,increased in approximate proportion to dose
same,inhibition of CYP2C19,CYP2C19,No significant inhibition
same,oral exposure (AUC) versus dose,[6],increased in approximate proportion to dose
same,inhibition of CYP3A4,CYP3A4,No significant inhibition
